Tests used:
Format in all cases: physicochemical
[1] = In vitro responsive properties towards temperature (Z-spectra); conditions: for resonance frequency of hydroxylic protons, less shifted stereoisomer / resonance frequency of hydroxylic protons, more shifted stereoisomer: 24 mM, pH 7.31
Description: A solution of Yb(III)HPDO3A (24 mM) having pH 7.31 was used for test.
The test was performed with a phantom containing solution of YbHPDO3A-tetramer in serum having different concentration, ranging from 0.26 to 8.4 mM., pH 7.4 and 298K. The dependence of the chemical shifts of the OH mobile protons (of the tetrameric complex stereoisomers) on the Temperature was tested by operating as formerly described for the monomeric compound.

[2] = Z-spectrum / NMR resonances of the exchangeable OH protons of NMR-distinguishable isomers in solution
Description: (§1) CEST MR contrast enhancement have been determined on images acquired at 7 T on a Bruker Avance 300 spectrometer equipped with a Micro2.5 microimaging probe. A typical RARE spin-echo sequence (rare factor 64) with an echo time of 3.3 ms and a TR value of 5 s were used. An acquisition matrix of 64×64 with a square FOV of 10 mm was used. The whole sequence was preceded by a saturation scheme consisting of a continuous wave pulse 2 s long with a RF intensity of 24, 12, 6 μT. The Z-spectra were successively analyzed in order to determine the ratiometric value by using a software compiled in MATLAB platform operating, broadly, as disclosed in Development and validation of a smoothing-splines-based correction method for improving the analysis of CEST-MR images, Stancanello J Terreno E, Delli Castelli D, Cabella C, Uggeri F 1, Aime S.; CONTRAST MEDIA & MOLECULAR IMAGING Volume: 3, Issue: 4, Pages: 136-149, 2008; and in Methods for an improved detection of the MRI-CEST effect. Terreno E, Stancanello 3, Longo D, Delli Castelli D, Milone L, Sanders H M H F, Kok M B, Uggeri F, Aime S; CONTRAST MEDIA & MOLECULAR IMAGING; Volume: 4; Issue: 5; Pages: 237-247; 2009 that are all herein included by reference. The total paramagnetic concentration of the solution was determined through the measurement of magnetic susceptibility of the solution on a Bruker Avance 600 spectrometer (12T).

[3] = In vitro responsiveness towards pH (CEST MRI of phantom, ratiometric ST); conditions: in vitro solutions buffered at different pH
Description: as §1, with “[…]. […]” for “(12T).”

Molecule: 1,23-bis[4,7,10-triacetate[1,4,7,10-tetraazacyclododecan-(1)-yl]]-12,12′-bis[11[4,7,10-triacetate)-[1,4,7,10-tetraazacyclododecan-(1)-yl]]2-aza-3-oxo-5,8-dioxy-10-hydroxyundecanyl]2,22-dihydroxy-4,7,17,20-tetroxy-9,15-dioxo-10,14-diazatricosane tetra Ytterbium Complex (1:4) [YbHPDO3A-tetramer]
- sensitivity of the OH chemical shift to temperature (in words) [1]: greatly increased

Molecule: CC(O)CN1CCN(CC(=O)[O-])CCN(CC(=O)[O-])CCN(CC(=O)[O-])CC1.[Eu+3] (centres unmarked) [EuHPDO3A]
- chemical shift of OH proton, first diastereoisomer (from water) ([2]; pH=2 and 37° C.): 20.5 ppm
- chemical shift of OH proton, second diastereoisomer ([2]; pH=2 and 37° C.): 16.7 ppm

Molecule: CC(O)CN1CCN(CC(=O)[O-])CCN(CC(=O)[O-])CCN(CC(=O)[O-])CC1.[Yb+3] (centres unmarked) [YbHPDO3A]
- chemical shift of hydroxyl group, less shifted NMR-distinguishable diastereoisomer ([2]; 20° C.): 72 ppm
- chemical shift of hydroxyl group, more shifted NMR-distinguishable diastereoisomer ([2]; 20° C.): 99 ppm
- responsiveness of the saturation transfer towards pH (in words) [3]: is different
- sensitivity of the OH chemical shift to temperature (in words) [1]: very sensitive to the temperature
- resonance frequency of hydroxylic protons, less shifted stereoisomer ([1]; 20° C.): 72 ppm
- resonance frequency of hydroxylic protons, more shifted stereoisomer ([1]; 20° C.): 99 ppm
- resonance frequency of hydroxylic protons, less shifted stereoisomer ([1]; 37° C.): 64.3 ppm
- resonance frequency of hydroxylic protons, more shifted stereoisomer ([1]; 37° C.): 88 ppm
